# In patent US12622910B2, “Inhibitors of Bruton's tyrosine kinase and methods of their use” (Janssen Pharmaceutica NV, priority 2021, dated 2026):
# Where two headings read alike, the source gives them in different places.
# Assays:
# CYP1A2 = target: T1, CYP1A2 (Homo sapiens, UniProt P05177); assay: CYP inhibition in human liver microsomes; format: in vitro ADME; conditions: probe Phenacetin
# T1 construct: with specific CYP probe substrates in human liver microsomes; from tissue; host or cells: human liver microsomes
# Method: (§1) The potential of the compound of Formula (III) to inhibit human CYP450s in vitro was investigated up to test concentrations of 50 μM by incubating the compound of Formula (III) with specific CYP probe substrates in human liver microsomes and measuring probe metabolite formation.
# CYP2D6 = target: T2, CYP2D6 (Homo sapiens, UniProt P10635); assay: CYP inhibition in human liver microsomes; format: in vitro ADME; conditions: probe Dextromethorphan
# T2 construct: with specific CYP probe substrates in human liver microsomes; from tissue; host or cells: human liver microsomes
# Method: as §1
# CYP2A6 = target: T3, CYP2A6 (Homo sapiens, UniProt P11509); assay: CYP inhibition in human liver microsomes; format: in vitro ADME; conditions: probe Coumarin
# T3 construct: with specific CYP probe substrates in human liver microsomes; from tissue; host or cells: human liver microsomes
# Method: as §1
# CYP2B6 = target: T4, CYP2B6 (Homo sapiens, UniProt P20813); assay: CYP inhibition in human liver microsomes; format: in vitro ADME; conditions: probe Bupropion
# T4 construct: with specific CYP probe substrates in human liver microsomes; from tissue; host or cells: human liver microsomes
# Method: as §1
# CYP2C8 = target: T5, CYP2C8 (Homo sapiens, UniProt P10632); assay: CYP inhibition in human liver microsomes; format: in vitro ADME; conditions: probe Amodiaquine
# T5 construct: with specific CYP probe substrates in human liver microsomes; from tissue; host or cells: human liver microsomes
# Method: as §1
# CYP2E1 = target: T6, CYP2E1 (Homo sapiens, UniProt P05181); assay: CYP inhibition in human liver microsomes; format: in vitro ADME; conditions: probe Chlorzoxazone
# T6 construct: with specific CYP probe substrates in human liver microsomes; from tissue; host or cells: human liver microsomes
# Method: as §1
# CYP2C19 = target: T7, CYP2C19 (Homo sapiens, UniProt P33261); assay: CYP inhibition in human liver microsomes; format: in vitro ADME; conditions: probe S-Mephenytoin
# T7 construct: with specific CYP probe substrates in human liver microsomes; from tissue; host or cells: human liver microsomes
# Method: as §1
# CYP2C9 = target: T8, CYP2C9 (Homo sapiens, UniProt P11712); assay: CYP inhibition in human liver microsomes; format: in vitro ADME
# T8 construct: with specific CYP probe substrates in human liver microsomes; from tissue; host or cells: human liver microsomes
# Method: as §1
# [1] = Metabolic stability in hepatocytes; format: in vitro ADME; conditions: for half-life: read-out: T1/2, hepatocytes
# Method: Additional Data on Preclinical PK Profile—Protein binding of the compound of Formula (III) was studied using an equilibrium dialysis method in plasma from human, cynomolgus monkey, beagle dog, Sprague Dawley rat, CD-1 mouse, and guinea pig at 0.25, 2.5, and 25 μM. […] In human and monkey, the plasma protein binding was concentration dependent. […] Free fraction of the compound of Formula (III) in liver microsomes from various species ranged from 75.1% to 87.9% at 0.25 mg/mL and from 58.9% to 86.5% at 1.0 mg/mL (Table 17). […] In hepatocytes, the compound of Formula (III) turnover followed a similar trend, with T1/2 ranging from 75.3 minutes in monkey to 278.1 minutes in human.
# [2] = Preclinical PK, oral and IV; format: in vivo, monkey
# BTK = BTK (Homo sapiens, UniProt Q06187); assay: Ramos B cell BTK occupancy assay (probe ELISA); format: cell-based; design: endogenous in cells
# Method: In vitro cellular target engagement-The dose-response of BTK occupancy was assessed using a Ramos B cell occupancy assay. Irreversible reaction with […] excludes it from further reaction and enables selective detection of the free (unreacted) BTK with a chemical probe, which utilizes the same binding site and reaction mechanism as the compound of formula (III). The probe carries a biotin sidechain to tag free BTK with an affinity handle to enable detection by ELISA.
# [3] = Preclinical PK, oral and IV; conditions: dog, in vivo
# [4] = Intestinal microsomal stability; format: in vitro ADME; conditions: intestinal microsomes
# Description: In human hepatocytes, the compound of Formula (III) is metabolized by CYP3A through mono-oxidations and N-dealkylations and by GSH conjugation to its acrylamide functionality. It bears moderate metabolic stability in hepatocytes across species and is slowly metabolized in human intestinal microsomes fortified with NADPH.
# [5] = test system: HBL1 (CD79b/Myd88/A20 mutant); assay: Antiproliferative activity, 8 days; format: cell-based; conditions: Homo sapiens, HBL1, 192 h, n = 4
# Method: (§2) In Vitro Activity in DLBCL Cell Lines—NFκB signaling regulates the secretion of multiple cytokines, including interleukin (IL)-6 and IL-10. Secretion of IL-6 and -10 by ABC-DLBCL OCI-LY-10 cells was measured using a MesoScale assay. […] To determine the anti-proliferative activity of the compound of formula (III), several ABC-DLBCL cell lines—OCI-LY-3, OCI-LY-10, TMD8, and HBL-1—were treated for 8 days. […] The OCI-LY-3 cell line, which harbors a CARD11 mutation downstream of BTK in the NF-κB signaling pathway, was completely insensitive to the compound of Formula (III) up to 2 μM. In 2 experiments, OCI-LY-3 cells were insensitive to the compound of Formula (III) at all concentrations up to 10 μM.
# [6] = test system: OCI-LY10 (CD79b/Myd88/A20 mutant); assay: Antiproliferative activity, 8 days; format: cell-based; conditions: Homo sapiens, OCI-Ly10, 192 h, n = 4
# Method: as §2
# [7] = test system: TMD8 (CD79b/Myd88/A20 mutant); assay: Antiproliferative activity, 8 days; format: cell-based; conditions: Homo sapiens, TMD8, 192 h, n = 4
# Method: as §2
# BTK, sequence (Q06187 whole entry): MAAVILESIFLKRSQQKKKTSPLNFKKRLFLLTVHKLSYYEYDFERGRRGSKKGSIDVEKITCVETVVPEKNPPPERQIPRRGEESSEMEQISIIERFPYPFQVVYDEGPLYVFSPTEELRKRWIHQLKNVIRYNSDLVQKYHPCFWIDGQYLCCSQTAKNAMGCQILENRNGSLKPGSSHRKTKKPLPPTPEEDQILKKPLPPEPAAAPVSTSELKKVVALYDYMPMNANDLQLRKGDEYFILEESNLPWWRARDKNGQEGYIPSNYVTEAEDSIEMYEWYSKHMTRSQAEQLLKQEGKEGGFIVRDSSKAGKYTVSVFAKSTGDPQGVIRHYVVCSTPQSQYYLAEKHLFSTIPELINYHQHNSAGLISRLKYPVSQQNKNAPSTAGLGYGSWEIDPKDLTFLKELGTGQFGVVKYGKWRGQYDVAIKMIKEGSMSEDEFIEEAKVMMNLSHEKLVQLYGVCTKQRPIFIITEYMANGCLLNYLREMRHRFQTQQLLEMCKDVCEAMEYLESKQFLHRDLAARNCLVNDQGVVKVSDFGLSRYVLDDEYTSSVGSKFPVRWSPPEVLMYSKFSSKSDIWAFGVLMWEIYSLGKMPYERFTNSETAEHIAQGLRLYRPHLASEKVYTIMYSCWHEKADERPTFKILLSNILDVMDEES
# T8 sequence (P11712 whole entry): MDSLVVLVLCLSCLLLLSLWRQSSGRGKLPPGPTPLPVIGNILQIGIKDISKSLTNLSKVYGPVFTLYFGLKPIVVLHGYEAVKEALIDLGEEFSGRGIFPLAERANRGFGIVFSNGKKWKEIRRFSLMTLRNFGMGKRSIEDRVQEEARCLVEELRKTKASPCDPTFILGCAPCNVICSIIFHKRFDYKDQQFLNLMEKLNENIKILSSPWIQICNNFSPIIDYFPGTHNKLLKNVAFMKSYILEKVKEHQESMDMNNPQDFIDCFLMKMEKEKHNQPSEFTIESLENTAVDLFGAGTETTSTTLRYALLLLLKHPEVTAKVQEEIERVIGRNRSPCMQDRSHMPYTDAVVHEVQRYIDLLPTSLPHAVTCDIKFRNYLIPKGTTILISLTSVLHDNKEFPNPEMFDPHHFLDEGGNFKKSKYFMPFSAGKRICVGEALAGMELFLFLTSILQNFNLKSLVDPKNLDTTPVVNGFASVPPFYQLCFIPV
# T1 sequence (P05177 whole entry): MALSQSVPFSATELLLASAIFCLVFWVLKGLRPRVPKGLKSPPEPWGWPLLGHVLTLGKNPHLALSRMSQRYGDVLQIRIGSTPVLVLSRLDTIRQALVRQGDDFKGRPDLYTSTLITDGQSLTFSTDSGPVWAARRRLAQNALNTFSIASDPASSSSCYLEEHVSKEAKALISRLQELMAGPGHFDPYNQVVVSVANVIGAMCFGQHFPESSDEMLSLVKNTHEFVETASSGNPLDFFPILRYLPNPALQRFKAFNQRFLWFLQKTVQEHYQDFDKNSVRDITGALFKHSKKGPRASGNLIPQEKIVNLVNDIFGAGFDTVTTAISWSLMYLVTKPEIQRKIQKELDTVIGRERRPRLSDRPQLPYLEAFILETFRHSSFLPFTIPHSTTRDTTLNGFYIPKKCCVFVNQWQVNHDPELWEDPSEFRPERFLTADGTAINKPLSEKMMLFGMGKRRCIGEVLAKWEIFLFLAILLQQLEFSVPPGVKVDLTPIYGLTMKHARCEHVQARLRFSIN
# T3 sequence (P11509 whole entry): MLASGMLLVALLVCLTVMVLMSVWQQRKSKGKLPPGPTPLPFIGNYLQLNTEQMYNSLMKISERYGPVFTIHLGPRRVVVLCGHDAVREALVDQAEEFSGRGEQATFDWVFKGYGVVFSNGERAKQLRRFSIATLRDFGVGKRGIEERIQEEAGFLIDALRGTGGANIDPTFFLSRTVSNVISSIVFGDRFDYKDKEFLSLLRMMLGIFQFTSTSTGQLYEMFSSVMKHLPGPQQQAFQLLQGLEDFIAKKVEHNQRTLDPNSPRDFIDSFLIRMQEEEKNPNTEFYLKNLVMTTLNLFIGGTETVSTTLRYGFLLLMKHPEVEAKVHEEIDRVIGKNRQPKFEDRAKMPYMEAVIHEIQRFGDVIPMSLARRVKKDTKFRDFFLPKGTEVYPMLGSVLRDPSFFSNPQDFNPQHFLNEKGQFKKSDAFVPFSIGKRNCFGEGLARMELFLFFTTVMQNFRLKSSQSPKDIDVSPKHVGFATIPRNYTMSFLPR
# T2 sequence (P10635 whole entry): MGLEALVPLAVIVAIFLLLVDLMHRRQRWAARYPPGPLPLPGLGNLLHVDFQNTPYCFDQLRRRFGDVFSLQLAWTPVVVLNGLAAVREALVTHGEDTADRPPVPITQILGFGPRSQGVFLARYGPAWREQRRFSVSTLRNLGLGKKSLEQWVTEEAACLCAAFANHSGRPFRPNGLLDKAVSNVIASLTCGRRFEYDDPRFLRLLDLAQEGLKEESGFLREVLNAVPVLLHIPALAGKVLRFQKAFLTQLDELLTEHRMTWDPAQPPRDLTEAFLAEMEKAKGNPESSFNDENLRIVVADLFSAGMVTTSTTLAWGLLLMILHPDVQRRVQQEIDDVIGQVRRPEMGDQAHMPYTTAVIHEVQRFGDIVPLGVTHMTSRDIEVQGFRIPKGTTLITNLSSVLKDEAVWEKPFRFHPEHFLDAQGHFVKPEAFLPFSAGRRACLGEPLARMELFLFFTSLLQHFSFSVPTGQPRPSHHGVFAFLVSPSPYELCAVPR
# T4 sequence (P20813 whole entry): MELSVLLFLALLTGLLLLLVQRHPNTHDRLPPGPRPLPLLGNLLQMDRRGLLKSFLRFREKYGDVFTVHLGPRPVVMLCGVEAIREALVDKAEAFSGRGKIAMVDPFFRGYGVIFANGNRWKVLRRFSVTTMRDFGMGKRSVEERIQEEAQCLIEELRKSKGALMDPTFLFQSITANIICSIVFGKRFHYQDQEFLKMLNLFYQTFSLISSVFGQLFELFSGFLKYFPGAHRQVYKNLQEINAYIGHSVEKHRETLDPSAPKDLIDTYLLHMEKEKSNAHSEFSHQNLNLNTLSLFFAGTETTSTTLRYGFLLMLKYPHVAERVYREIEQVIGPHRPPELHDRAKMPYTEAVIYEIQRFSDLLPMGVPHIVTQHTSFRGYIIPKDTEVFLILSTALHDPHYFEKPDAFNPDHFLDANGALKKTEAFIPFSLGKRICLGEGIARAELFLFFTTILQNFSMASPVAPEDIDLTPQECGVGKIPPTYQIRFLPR
# T6 sequence (P05181 whole entry): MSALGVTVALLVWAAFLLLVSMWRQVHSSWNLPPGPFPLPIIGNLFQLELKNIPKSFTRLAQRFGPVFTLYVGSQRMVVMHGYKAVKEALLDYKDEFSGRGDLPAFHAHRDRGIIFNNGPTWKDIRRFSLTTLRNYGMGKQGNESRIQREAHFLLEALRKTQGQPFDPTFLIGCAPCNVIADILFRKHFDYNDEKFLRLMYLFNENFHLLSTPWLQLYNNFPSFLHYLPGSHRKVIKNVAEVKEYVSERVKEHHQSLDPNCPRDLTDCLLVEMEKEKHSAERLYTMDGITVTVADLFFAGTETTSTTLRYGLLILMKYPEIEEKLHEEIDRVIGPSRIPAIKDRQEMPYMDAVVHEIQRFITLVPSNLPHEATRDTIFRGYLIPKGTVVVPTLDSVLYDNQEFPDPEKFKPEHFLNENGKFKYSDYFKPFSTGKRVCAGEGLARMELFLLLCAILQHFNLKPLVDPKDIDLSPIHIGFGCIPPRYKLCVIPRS
# T7 sequence (P33261 whole entry): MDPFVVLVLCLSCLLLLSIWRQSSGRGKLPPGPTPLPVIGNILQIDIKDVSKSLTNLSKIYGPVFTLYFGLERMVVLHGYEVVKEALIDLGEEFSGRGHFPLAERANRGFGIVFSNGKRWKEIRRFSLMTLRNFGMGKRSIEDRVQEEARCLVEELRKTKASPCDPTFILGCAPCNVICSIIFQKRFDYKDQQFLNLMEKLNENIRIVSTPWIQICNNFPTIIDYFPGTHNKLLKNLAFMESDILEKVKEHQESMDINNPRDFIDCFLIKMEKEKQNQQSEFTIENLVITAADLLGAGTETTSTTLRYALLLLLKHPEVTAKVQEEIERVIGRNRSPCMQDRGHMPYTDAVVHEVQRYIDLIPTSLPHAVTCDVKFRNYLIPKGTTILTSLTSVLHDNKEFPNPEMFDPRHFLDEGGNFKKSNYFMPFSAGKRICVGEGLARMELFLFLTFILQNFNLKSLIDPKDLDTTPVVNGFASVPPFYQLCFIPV
# T5 sequence (P10632 whole entry): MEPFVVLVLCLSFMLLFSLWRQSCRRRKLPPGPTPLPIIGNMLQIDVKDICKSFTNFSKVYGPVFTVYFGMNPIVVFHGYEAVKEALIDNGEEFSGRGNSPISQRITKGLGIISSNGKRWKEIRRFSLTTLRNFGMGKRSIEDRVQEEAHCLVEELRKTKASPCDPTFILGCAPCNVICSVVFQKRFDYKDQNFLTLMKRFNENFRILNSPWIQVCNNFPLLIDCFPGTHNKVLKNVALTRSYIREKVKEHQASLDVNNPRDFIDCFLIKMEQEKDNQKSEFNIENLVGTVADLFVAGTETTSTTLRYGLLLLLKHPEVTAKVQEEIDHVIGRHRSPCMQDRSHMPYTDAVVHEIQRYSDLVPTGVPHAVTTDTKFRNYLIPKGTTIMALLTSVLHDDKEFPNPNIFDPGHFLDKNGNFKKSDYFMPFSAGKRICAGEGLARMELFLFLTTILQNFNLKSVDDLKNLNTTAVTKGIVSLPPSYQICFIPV
structure (smiles),measurement,setting,value
"C=CC(=O)N[C@H]1CCC[C@H]1NC(=O)c1sc2nccc3c2c1NC(=O)N3c1cnc(CC(C)C)cc1C (atropisomer, axis not shown) [compound of Formula (III), N-((1R,2S)-2-Acrylamidocyclopentyl)-5-(S)-(6-isobutyl-4-methylpyridin-3-yl)-4-oxo-4,5-dihydro-3H-1-thia-3,5,8-triazaacenaphthylene-2-carboxamide]",IC50,CYP1A2,> 50 µM
same,IC50,CYP2D6,26 µM
same,IC50,CYP2A6,> 50 µM
same,IC50,CYP2B6,> 50 µM
same,IC50,CYP2C8,16 µM
same,IC50,CYP2E1,> 50 µM
same,IC50,CYP2C19,> 50 µM
same,IC50,CYP2C9; probe Diclofenac,3 µM
same,IC50,CYP2C9; probe Tolbutamide,5.3 µM
same,hepatocyte CLint,[1]; dog,19.2 µL/min/1e6 cells
same,half-life,[1]; dog,4.62 h
same,hepatocyte CLint,[1]; human,15.4 µL/min/1e6 cells
same,half-life,[1]; human,4.64 h
same,hepatocyte CLint,[1]; rat,52.3 µL/min/1e6 cells
same,half-life,[1]; rat,2.12 h
same,clearance,"[2]; monkey, in vivo, iv",3.1 ± 0.3 mL/min/kg
same,half-life,"[2]; monkey, in vivo, iv, read-out: IV T1/2 (converted)",4 h
same,Vd,"[2]; monkey, in vivo, iv, read-out: Vss",0.7 L/kg
same,Cmax,"[2]; monkey, in vivo, oral",1010 ± 94 ng/mL
same,Tmax,"[2]; monkey, in vivo, oral",1.7 ± 0.6 h
same,AUC(0-inf),"[2]; monkey, in vivo, oral, read-out: Oral AUCinf",10000 ± 2270 ng·h/mL
same,F,"[2]; oral, monkeys",75 ± 17%
same,time to full BTK occupancy,BTK; 100 and 300 nM,≤ 40 min
same,IC50,"BTK; Ramos B cells, n=11, read-out: BTK occupancy IC50 (mean±SD)",0.021 ± 0.007 µM
same,clearance,[3]; iv,11 ± 3 mL/min/kg
same,half-life,"[3]; iv, read-out: IV T1/2 (converted)",1.1 ± 0.1 h
same,Vd,"[3]; iv, read-out: Vss",0.8 ± 0.2 L/kg
same,Cmax,[3]; oral,890 ± 286 ng/mL
same,Tmax,[3]; oral,0.8 ± 0.3 h
same,AUC(0-inf),"[3]; oral, read-out: Oral AUCinf",1960 ± 421 ng·h/mL
same,microsomal CLint,"[4]; Sprague Dawley, rat",< 3.9 µL/min/mg
same,microsomal CLint,"[4]; beagle, dog",< 3.9 µL/min/mg
same,microsomal CLint,[4]; human,14.1 µL/min/mg
same,IC50,[5],0.03 µM
same,IC50,[6],0.018 µM
same,IC50,[7],0.034 µM
